The source made the active and inactive calls.
Columns and labels:
Protein skinhead-1 = target: T1, Protein skinhead-1 (Caenorhabditis elegans, UniProt P34707); assay type: functional
T1 sequence (P34707 whole entry): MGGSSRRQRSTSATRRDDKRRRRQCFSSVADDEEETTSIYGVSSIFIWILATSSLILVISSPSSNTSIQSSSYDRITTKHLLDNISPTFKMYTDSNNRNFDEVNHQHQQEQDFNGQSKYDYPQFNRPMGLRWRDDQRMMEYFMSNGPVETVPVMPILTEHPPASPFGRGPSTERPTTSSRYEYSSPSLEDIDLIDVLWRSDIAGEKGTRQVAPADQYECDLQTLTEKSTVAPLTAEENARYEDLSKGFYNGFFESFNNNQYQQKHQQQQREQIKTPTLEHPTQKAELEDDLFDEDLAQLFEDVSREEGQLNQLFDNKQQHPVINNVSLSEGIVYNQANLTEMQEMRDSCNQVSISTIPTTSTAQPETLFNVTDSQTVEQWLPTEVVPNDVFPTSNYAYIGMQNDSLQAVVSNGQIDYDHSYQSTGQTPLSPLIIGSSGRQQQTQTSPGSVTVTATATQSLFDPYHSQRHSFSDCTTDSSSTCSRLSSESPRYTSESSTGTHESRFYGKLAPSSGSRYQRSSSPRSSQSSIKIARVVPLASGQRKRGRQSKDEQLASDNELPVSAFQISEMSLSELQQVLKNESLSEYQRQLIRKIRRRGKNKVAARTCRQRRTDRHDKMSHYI

Vero = assay: cells; assay type: functional; details: Chlorocebus sabaeus
Cytochrome P450 2D6 = Cytochrome P450 2D6 (Homo sapiens, UniProt P10635);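 also: CYP2D6 member of a cytochrome P450 panel assay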
Cytochrome P450 3A4 = Cytochrome P450 3A4 (Homo sapiens, UniProt P08684);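 also: CYP3A4 tested as one member of a cytochrome P450 panel screen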
Cytochrome P450 2C9 = Cytochrome P450 2C9 (Homo sapiens, UniProt P11712)
Genome polyprotein = Genome polyprotein (dengue virus type 2, UniProt P29990); assay: Dengue-2 NS5 methyltransferase inhibitors, primary screen, biochemical, confirmation dose response (AID 588689); assay type: functional
Cytochrome P450 1A2 = target: T2, Cytochrome P450 1A2 (Homo sapiens, UniProt P05177);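 also: PubChem cytochrome P450 panel assay, CYP1A2 panel member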
T2 sequence (P05177 whole entry): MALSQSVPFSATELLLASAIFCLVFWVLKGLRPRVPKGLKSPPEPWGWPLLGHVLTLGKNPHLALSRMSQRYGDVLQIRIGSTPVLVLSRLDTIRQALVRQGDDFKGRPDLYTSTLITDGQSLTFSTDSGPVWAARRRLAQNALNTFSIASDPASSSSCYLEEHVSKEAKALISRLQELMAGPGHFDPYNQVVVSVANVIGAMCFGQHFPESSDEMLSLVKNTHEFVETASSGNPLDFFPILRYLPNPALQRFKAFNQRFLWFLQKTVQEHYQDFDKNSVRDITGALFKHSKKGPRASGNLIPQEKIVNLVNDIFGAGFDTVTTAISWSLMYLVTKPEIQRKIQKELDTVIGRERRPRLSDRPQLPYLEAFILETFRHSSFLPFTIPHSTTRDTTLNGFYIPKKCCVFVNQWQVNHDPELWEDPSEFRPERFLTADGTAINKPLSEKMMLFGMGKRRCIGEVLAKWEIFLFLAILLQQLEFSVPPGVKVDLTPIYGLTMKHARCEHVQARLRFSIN

BJ = assay: cells; assay type: functional, cell-based, Homo sapiens; details: bj
[1] = target: T3, Replicative DNA helicase DnaB (Mycobacterium tuberculosis, UniProt P9WMR3); assay: DnaB intein splicing inhibitors, dose response, biochemical, cell-free fluorescence (AID 449749); assay type: functional
T3 sequence (P9WMR3 whole entry): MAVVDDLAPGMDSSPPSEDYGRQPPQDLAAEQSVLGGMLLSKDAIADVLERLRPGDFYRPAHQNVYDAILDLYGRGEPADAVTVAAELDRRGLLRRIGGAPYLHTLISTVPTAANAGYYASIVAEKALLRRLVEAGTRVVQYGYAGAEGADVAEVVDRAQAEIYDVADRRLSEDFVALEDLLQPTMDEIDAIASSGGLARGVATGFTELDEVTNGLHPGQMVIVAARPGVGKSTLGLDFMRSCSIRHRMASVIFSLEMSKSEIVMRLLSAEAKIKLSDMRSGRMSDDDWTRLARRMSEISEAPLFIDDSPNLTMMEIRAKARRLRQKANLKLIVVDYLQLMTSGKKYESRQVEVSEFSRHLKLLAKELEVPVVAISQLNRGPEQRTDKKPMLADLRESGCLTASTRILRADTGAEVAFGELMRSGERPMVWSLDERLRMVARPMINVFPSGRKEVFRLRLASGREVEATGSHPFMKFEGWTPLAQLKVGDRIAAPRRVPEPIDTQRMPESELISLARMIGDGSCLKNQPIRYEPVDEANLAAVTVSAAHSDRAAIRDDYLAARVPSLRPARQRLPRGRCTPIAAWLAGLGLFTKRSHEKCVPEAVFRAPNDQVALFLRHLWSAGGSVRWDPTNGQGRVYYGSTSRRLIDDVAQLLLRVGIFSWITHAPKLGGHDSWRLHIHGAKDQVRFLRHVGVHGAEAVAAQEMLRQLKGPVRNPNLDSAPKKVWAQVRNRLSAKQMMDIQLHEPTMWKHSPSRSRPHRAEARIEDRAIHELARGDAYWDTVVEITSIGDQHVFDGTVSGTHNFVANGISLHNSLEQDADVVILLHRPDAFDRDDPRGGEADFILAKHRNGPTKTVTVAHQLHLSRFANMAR

Protein RecA = target: T4, Protein RecA (Mycobacterium tuberculosis, UniProt P9WHJ3); assay: Fluorescence Cell-Free Homogeneous Dose Retest to Identify Inhibitors of RecA-Intein Splicing Activity. [Related pubchem assays (depositor defined):AID2097, AID2223, AID489010, AID492950]; assay type: functional
T4 sequence (P9WHJ3 whole entry): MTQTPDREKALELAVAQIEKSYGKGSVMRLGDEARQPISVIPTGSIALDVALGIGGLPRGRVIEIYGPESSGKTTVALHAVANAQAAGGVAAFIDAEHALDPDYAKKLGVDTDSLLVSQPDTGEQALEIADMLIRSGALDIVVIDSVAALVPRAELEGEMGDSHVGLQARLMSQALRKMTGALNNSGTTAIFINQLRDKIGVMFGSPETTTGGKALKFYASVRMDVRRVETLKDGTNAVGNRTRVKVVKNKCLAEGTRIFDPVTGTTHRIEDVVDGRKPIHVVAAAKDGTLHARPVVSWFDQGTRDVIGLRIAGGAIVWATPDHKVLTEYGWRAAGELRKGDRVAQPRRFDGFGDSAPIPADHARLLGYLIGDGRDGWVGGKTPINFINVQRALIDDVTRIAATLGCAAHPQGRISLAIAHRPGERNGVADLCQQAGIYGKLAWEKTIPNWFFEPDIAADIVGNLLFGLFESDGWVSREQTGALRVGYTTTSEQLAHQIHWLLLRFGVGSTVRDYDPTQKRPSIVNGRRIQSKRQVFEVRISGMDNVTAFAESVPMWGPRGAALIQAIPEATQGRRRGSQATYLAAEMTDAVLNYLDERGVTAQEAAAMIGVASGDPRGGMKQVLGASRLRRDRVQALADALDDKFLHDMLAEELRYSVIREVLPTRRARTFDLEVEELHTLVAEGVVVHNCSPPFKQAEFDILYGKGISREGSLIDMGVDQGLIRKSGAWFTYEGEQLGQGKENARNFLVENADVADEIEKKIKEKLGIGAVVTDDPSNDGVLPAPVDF

[2] = inhibitors of intracellular T. cruzi replication, confirmation, NIH3T3 host cells, beta-gal luminescence (AID 2044); assay type: functional, cell-based;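 also: intracellular parasites grown in NIH/3T3 mouse fibroblasts as host cells; luminescent beta-galactosidase reporter signal from transgenic T. cruzi replicating inside host cells; inhibitors lower the luminescence signal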
[3] = cytotoxicity toward NIH3T3 fibroblasts, dose response, counter-screen, cell-based, ATP luminescence, mouse fibroblasts (AID 2010); assay type: functional;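 also: cells exposed to compound for about 90 hours before reading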
Cytochrome P450 2C19 = Cytochrome P450 2C19 (Homo sapiens, UniProt P33261); assay: Cytochrome panel assay with activity outcomes. Panel member name: p450-cyp2c19 Compounds with AC50 equal or less than 10 uM are considered active; assay type: functional; details: read-out: AC50
[4] = target: T5, Rac GTPase-activating protein 1 (Homo sapiens, UniProt Q9H0H5); assay: MgcRacGAP GTPase-activating activity inhibitors, confirmation, biochemical, ADP Hunter fluorescence, primary and confirmatory (AID 624330); assay type: functional
T5 sequence (Q9H0H5 whole entry): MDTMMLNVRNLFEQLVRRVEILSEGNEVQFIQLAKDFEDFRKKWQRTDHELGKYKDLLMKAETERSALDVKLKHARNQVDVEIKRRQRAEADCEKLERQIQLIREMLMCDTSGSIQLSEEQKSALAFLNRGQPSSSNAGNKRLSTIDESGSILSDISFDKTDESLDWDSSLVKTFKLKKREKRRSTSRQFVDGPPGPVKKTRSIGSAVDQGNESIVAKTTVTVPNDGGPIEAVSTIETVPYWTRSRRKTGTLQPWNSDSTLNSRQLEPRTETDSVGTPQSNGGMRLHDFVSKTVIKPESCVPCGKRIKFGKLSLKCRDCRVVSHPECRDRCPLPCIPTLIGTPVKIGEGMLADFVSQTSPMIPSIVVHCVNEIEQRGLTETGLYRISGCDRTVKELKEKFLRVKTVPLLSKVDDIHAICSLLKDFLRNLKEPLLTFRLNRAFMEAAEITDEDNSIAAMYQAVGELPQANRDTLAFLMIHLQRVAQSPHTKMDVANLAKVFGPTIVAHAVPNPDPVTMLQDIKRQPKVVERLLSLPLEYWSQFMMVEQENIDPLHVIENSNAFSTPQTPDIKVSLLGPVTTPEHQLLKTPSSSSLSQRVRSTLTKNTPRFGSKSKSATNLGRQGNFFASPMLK

[5] = HEp-2 cell cytotoxicity, dose response, cytotoxicity control for RSV inhibitor project, HTS (AID 2410); assay type: functional; details: human respiratory syncytial virus
Fatty acid synthase [6] = target: T6, Fatty acid synthase (Homo sapiens, UniProt P49327); assay: FAS thioesterase domain inhibitors, dose response, biochemical, endpoint fluorescence intensity, uHTS hits (AID 624327); assay type: functional;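 also: fluorescence from hydrolysis of an O-methyl fluorescein acyl ester substrate by the enzyme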
Fatty acid synthase [7] = target: T6, Fatty acid synthase; assay: FAS thioesterase domain inhibitors, dose response, biochemical, kinetic fluorescence intensity (AID 624326); assay type: functional;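 also: rate of fluorescence rise from hydrolysis of a fluorogenic O-methyl fluorescein ester substrate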

Genome polyprotein, sequence (P29990 2492-3391 limits assumed): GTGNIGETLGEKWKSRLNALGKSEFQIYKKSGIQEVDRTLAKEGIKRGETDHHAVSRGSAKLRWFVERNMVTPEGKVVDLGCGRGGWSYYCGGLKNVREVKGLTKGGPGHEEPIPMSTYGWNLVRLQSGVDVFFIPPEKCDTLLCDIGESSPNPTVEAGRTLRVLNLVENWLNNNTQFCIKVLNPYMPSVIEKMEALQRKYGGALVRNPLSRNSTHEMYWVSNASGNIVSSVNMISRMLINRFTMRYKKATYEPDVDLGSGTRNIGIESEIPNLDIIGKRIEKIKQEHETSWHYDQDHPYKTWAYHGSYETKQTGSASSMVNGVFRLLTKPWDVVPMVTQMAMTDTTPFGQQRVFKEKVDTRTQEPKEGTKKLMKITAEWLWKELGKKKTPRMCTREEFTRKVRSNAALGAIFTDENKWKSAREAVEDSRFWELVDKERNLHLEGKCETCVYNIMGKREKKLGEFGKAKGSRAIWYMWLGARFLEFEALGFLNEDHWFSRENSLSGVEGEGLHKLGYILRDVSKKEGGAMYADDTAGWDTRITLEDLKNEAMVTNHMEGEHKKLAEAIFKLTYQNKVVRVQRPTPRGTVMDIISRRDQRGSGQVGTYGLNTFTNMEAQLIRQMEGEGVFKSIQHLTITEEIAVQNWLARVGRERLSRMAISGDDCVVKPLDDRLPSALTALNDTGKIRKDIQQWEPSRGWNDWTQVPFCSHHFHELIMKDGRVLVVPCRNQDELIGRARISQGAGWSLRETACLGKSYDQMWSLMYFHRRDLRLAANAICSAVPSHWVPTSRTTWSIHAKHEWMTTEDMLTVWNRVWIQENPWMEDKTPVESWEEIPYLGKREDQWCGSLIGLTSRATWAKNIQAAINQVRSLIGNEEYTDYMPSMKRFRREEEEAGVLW
Cytochrome P450 2D6, sequence (P10635 whole entry): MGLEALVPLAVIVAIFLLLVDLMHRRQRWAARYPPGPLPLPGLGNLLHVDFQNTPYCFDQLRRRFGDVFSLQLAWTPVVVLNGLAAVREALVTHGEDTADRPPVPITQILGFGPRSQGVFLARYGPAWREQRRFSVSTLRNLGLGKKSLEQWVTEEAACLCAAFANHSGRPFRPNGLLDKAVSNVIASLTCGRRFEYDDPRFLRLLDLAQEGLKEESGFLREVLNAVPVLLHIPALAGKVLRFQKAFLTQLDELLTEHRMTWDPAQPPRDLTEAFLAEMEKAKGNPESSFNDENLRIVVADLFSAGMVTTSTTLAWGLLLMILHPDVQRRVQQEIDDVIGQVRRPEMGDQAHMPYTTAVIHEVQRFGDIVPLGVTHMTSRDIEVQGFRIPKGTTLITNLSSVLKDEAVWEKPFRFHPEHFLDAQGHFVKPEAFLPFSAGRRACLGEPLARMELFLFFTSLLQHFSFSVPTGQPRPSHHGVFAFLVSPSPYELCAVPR
Cytochrome P450 2C9, sequence (P11712 whole entry): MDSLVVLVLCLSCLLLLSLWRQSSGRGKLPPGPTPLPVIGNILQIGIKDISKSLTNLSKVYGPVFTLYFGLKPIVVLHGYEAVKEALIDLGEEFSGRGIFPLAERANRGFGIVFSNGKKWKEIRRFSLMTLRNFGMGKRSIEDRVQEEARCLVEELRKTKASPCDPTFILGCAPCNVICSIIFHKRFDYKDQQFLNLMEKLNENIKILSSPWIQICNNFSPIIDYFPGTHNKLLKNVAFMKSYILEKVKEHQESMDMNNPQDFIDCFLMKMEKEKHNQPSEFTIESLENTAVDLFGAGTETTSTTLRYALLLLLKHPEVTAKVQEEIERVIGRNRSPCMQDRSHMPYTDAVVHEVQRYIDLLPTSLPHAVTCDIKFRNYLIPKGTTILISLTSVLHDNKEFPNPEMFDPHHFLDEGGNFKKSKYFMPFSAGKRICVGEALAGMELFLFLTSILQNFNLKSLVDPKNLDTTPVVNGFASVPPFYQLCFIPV
T6 sequence (P49327 whole entry, the tested form may be a part): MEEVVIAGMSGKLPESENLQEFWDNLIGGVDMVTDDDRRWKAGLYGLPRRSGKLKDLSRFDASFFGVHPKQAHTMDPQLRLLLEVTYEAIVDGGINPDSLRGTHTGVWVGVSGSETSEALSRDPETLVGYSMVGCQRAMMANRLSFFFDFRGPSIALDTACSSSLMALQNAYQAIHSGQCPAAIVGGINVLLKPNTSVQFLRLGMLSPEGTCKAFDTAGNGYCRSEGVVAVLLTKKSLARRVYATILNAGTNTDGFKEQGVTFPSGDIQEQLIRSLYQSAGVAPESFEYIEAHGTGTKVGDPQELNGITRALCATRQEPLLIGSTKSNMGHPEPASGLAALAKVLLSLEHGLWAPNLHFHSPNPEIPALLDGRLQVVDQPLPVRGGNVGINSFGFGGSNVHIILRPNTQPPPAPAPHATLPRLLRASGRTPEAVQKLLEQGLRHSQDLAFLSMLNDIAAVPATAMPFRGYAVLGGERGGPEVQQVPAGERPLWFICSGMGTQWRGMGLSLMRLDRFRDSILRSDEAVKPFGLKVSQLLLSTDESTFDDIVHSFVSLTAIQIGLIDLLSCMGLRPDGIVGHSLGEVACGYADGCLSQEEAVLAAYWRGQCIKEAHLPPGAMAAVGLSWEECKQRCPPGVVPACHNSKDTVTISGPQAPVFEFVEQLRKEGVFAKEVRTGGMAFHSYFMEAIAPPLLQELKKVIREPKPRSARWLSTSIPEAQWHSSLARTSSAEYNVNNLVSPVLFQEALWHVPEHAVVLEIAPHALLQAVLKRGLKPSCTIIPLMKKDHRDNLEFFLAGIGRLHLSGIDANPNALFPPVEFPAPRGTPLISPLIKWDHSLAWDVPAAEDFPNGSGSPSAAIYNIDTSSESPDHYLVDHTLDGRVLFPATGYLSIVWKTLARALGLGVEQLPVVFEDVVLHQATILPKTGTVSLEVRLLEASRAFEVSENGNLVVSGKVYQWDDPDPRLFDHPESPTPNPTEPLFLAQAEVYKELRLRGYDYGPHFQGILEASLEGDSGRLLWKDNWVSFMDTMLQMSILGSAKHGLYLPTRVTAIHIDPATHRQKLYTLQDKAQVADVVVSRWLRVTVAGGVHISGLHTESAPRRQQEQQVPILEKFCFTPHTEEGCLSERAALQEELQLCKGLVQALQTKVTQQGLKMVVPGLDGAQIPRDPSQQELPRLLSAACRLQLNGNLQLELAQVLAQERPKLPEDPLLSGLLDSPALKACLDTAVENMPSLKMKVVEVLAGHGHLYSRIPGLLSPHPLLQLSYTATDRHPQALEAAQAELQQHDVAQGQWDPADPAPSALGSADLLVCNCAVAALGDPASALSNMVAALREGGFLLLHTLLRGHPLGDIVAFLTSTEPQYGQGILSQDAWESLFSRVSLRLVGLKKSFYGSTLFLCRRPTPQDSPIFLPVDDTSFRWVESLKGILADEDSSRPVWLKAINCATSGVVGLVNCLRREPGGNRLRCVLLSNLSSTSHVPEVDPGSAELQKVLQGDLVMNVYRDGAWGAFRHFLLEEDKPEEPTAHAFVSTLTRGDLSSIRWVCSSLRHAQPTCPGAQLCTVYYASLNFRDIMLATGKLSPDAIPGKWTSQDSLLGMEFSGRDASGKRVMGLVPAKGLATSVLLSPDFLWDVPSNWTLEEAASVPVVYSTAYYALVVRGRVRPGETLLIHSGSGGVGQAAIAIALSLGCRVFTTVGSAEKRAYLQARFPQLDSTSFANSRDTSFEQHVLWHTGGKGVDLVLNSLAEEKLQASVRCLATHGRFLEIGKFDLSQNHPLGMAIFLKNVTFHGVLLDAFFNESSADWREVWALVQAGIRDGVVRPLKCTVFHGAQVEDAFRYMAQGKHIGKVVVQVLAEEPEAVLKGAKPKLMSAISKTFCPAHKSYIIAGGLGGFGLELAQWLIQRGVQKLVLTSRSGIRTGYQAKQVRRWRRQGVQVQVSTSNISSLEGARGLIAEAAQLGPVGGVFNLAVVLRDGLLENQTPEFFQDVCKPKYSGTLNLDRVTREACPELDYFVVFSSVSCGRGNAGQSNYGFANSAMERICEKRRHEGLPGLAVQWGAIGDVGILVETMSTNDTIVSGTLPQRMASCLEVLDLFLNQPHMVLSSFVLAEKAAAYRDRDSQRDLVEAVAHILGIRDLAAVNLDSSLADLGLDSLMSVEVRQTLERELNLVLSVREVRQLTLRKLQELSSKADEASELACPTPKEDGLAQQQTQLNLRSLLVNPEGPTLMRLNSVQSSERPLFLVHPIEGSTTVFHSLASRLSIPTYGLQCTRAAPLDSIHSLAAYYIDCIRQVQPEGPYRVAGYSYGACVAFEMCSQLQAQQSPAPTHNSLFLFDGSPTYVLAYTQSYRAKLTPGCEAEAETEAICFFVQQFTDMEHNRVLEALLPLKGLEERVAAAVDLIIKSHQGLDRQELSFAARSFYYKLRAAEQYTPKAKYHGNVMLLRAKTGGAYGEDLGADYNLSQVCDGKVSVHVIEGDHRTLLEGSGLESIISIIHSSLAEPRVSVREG
Cytochrome P450 2C19, sequence (P33261 whole entry): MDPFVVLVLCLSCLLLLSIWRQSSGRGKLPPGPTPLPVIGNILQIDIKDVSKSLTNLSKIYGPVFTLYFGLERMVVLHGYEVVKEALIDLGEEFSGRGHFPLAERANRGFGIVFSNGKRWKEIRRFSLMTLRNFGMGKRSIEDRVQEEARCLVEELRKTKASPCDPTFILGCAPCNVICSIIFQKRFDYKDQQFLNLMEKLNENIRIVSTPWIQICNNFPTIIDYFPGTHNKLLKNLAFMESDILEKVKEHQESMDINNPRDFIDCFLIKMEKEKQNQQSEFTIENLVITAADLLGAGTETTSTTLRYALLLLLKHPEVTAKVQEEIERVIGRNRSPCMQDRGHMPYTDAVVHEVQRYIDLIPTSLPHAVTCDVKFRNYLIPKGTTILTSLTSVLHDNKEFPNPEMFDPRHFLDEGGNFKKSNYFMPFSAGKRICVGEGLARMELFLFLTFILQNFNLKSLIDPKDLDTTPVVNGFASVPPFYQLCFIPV

Cc1ccc(-c2nc(-c3ccncc3)no2)cc1
IC50 (Protein skinhead-1): 13.9 µM (active)

Fc1ccc(CSc2nnc(-c3cccs3)o2)cc1
IC50 (Protein skinhead-1): 27.3 µM (active)

CNC[C@H](CC1CCCCC1)NC[C@H](NCCC1CCCC1)[C@H](C)O
CC50 (Vero): > 25 µM (active)

CCCCn1nnnc1SCC(=O)c1cc(Cl)ccc1OC
AC50 (Cytochrome P450 2D6): 22.4 µM (inconclusive)
AC50 (Cytochrome P450 3A4): 14.1 µM (inconclusive)
AC50 (Cytochrome P450 2C9): inconclusive

CC(=C\c1ccccc1)/C=C1/SC(=S)N(C(C(=O)O)C(C)C)C1=O (stereo not given)
IC50 (Genome polyprotein): 34.1 µM (active)

COc1ccc(N2CCN(C(=O)c3cc4c(-c5cccc(OC)c5)nn(C)c4s3)CC2)cc1
IC50 (Protein skinhead-1): > 100 µM (inactive)

O=C(CS(=O)(=O)c1cccc(Cl)c1)Nc1ccccc1Cl
AC50 (Cytochrome P450 2D6): 17.8 µM (inconclusive)
AC50 (Cytochrome P450 1A2): 22.4 µM (inconclusive)
AC50 (Cytochrome P450 2C9): inconclusive

Cc1cc(N(CCCl)CCCl)ccc1C=Cc1ccncn1
IC50 (Protein skinhead-1): > 100 µM (inactive)

COc1cc2c(c(OC)c1OC)-c1ccc(=O)c(O)cc1C(NC(C)=O)CC2 (stereo not given)
EC50 (BJ): 0.126 µM (inconclusive)

O=C1NC(=O)C(=Cc2ccccc2Oc2ccc(F)cc2)C(=O)N1
IC50 (Genome polyprotein): 37.5 µM (active)

Cc1ccc(N2C(=O)NC(=O)/C(=C/c3ccc(OC(=O)c4cccs4)cc3)C2=O)cc1
AC50 [1]: 0.64 µM (active)
EC50 (Protein RecA): 0.772 µM (active)
IC50 (Genome polyprotein): 55.4 µM (active)

Cc1ccc(CNC(=O)CN2C(=O)COc3ccc(C)cc32)cc1
AC50 (Cytochrome P450 2D6): 28.2 µM (inconclusive)
AC50 (Cytochrome P450 2C9): inconclusive

COc1cccc(/C=N/n2c(=S)n(C)c3cc(C)c(C)cc32)c1OC
AC50 (Cytochrome P450 2C9): inconclusive

CC1=C(C(=O)Nc2ccccc2F)C(c2ccsc2)C2=C(O)CC(c3ccccc3)CC2=N1 (stereo not given)
EC50 [2]: 3.32 µM (active)
EC50 [3]: 8.96 µM (active)
AC50 (Cytochrome P450 1A2): 11.2 µM (inconclusive)
AC50 (Cytochrome P450 2C9): inconclusive

CCOC(=O)C(Oc1ccc2c(-c3ccc(OC)cc3)cc(=O)oc2c1C)c1ccccc1 (stereo not given)
IC50 (Protein skinhead-1): > 100 µM (inactive)

CCOC(=O)c1ccc(CNC(=O)C2CCCCC2C(=O)OCC(F)(F)F)o1 (stereo not given)
AC50 (Cytochrome P450 2C19): 39.8 µM (inconclusive)
AC50 (Cytochrome P450 2D6): 25.1 µM (inconclusive)
AC50 (Cytochrome P450 2C9): inconclusive

COc1ccccc1-c1nnc(-c2ccc(F)cc2)o1
IC50 (Protein skinhead-1): 90.4 µM (inactive)

O=C1NN(c2ccccc2)C(=O)C1=Cc1ccccc1O
IC50 (Genome polyprotein): 34.6 µM (active)
IC50 [4]: 81.3 µM (active)

CC(=O)Nc1ccc(S(=O)(=O)Nc2cccc(-c3nc4cc(C)ccc4o3)c2)cc1
CC50 [5]: 9.33 µM (active)
CC50 (Vero): > 25 µM (active)

CCOc1cc2c(cc1O)C(=NO)CC1C2CCC2(C)C(O)CCC12 (stereo not given)
CC50 (Vero): 4.99 µM (active)

CCCSc1nc(C)cc(C)c1S(=O)(=O)c1ccccc1C
AC50 (Cytochrome P450 2D6): 39.8 µM (inconclusive)
AC50 (Cytochrome P450 1A2): 11.2 µM (inconclusive)
AC50 (Cytochrome P450 2C9): inconclusive

Cc1ccc(S(=O)(=O)N2C[C@H]3[C@H]4C(=O)N(c5ccccc5)C(=O)[C@H]4CC(=O)[C@H]3[C@@H]2c2cccc3ccccc23)cc1
IC50 (Protein skinhead-1): > 100 µM (inactive)
IC50 (Fatty acid synthase [6]): 21.6 µM (inactive)
IC50 (Fatty acid synthase [7]): 15.6 µM (active)

From ChEMBL document CHEMBL1201862, “PubChem BioAssay data set” (2004)
